In ChEMBL document CHEMBL3865798, “Engineering another class of anti-tubercular lead: Hit to lead optimization of an intriguing class of gyrase ATPase inhibitors” (Eur J Med Chem, 2016) one finds inhibition, IC50 and MIC data, which are given here for 21 molecules.

Molecules are shown by their SMILES. In brackets after ≈: the same amount, converted by molar mass.

The nature of series [1]: Growth inhibition of mouse RAW264.7 cells at 100 uM after 48 hrs by MTT assay. Format: cell-based. The following applies: read-out: GI. On the technique in general: Tetrazolium dyes change colour on reduction, which living cells bring about.
Series [2] deals with DNA gyrase subunit B (Mycobacterium smegmatis (strain ATCC 700084 / mc(2)155), UniProt A0QNE0).
DNA gyrase subunit B (Mycobacterium smegmatis (strain ATCC 700084 / mc(2)155), UniProt A0QNE0), sequence (A0QNE0 whole entry): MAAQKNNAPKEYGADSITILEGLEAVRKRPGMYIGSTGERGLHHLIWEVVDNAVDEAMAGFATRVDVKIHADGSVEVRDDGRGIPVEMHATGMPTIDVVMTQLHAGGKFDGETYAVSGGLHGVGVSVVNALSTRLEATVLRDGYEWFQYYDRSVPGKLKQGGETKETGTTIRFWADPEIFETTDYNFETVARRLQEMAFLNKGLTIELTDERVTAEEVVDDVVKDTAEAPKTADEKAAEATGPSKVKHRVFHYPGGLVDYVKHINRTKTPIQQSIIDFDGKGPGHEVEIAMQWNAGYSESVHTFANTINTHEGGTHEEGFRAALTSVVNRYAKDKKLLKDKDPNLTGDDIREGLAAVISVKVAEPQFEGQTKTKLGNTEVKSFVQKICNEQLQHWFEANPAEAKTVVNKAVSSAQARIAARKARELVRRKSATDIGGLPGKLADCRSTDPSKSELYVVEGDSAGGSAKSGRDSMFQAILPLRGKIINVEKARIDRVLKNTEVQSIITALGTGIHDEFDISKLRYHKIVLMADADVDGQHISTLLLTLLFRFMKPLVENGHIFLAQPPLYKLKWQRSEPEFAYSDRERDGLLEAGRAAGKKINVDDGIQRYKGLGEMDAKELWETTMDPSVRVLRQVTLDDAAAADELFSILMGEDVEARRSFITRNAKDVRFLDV
Description: Inhibition of Mycobacterium smegmatis 155 6His-tagged DNA gyrase B catalytic domain ATPase activity expressed in Escherichia coli BL21 (DE3) pLysS cells assessed as inorganic phosphate release after 120 mins in presence of ATP by malachite green dye based assay
For series [3], the system named is Mycobacterium tuberculosis. Nature of the series: microbe, parasite or virus in culture. The following applies: H37Rv, 168 h.
Description: Antimycobacterial activity against Mycobacterium tuberculosis H37Rv after 7 days by microplate alamar blue assay

As usually defined, the IC50 is the concentration that inhibits the measured activity by half. High values mean a need for much substance, low ones inhibition by little substance. For the molecule `O=C(CN1CCN(c2ccnc3cc(Cl)ccc23)CC1)NCc1ccccc1`, the inhibition at 48 h, 100 µM in series [1] was determined as 15.3%. Also, the half-inhibitory concentration (IC50) in series [2] turned out to be 23.8 µM. Moreover, the MIC in series [3] turned out to be 63.3 µM (≈ 25 µg/mL).
Molecule `CC1COc2c(N3CCN(C)CC3)c(F)cc3c(=O)c(C(=O)O)cn1c23` (configuration not stated) [OFLOXACIN] displayed an MIC in series [3] of 2.16 µM (≈ 0.781 µg/mL).
Consider `CC(C)NC(=O)N1CCN(c2ccnc3cc(Cl)ccc23)CC1`, for which the inhibition at 48 h, 100 µM in series [1] was determined as 34.4%. In series [2], the IC50 was found to be 43.9 µM. Besides, the MIC in series [3] worked out at 155 µM (≈ 51.6 µg/mL).
Take `S=C(NCc1ccccc1)N1CCN(c2ccnc3cc(Cl)ccc23)CC1`: in series [1], the inhibition at 48 h, 100 µM was found to be 19.8%. Further, the half-inhibitory concentration (IC50) in series [2] was 5.5 µM. This molecule also showed an MIC in series [3] of 15.8 µM (≈ 6.25 µg/mL).
`CC(=O)c1ccc(NC(=O)N2CCN(c3ccnc4cc(Cl)ccc34)CC2)cc1`: the inhibition at 48 h, 100 µM in series [1] amounted to 26.2%. For the same molecule, in series [2], 18.8 µM corresponded to half-maximal inhibition (IC50). For the same molecule, in series [3], the MIC stood at 30.6 µM (≈ 12.5 µg/mL).
On to `O=C(c1ccc[nH]1)N1CCN(c2ccnc3cc(Cl)ccc23)CC1`, for which the inhibition at 48 h, 100 µM in series [1] was 34.2%. In series [2], the IC50 stood at 14.2 µM. Moreover, the MIC in series [3] came out at 18.3 µM (≈ 6.25 µg/mL).
The like results for `O=C(Nc1ccc([N+](=O)[O-])cc1)N1CCN(c2ccnc3cc(Cl)ccc23)CC1` were, in that order, 41.8 to 42%, 9.2 µM and 30.4 µM (≈ 12.5 µg/mL).
On to `CC(=O)c1ccc(NC(=O)CN2CCN(c3ccnc4cc(Cl)ccc34)CC2)cc1`, for which, in series [1], the inhibition at 48 h, 100 µM was 29.5%. For the same molecule, inhibition in series [2] was half-maximal at 7.6 µM (IC50). The MIC in series [3] stood at 14.5 µM (≈ 6.13 µg/mL).
Regarding `O=C(c1cc2ccccc2[nH]1)N1CCN(c2ccnc3cc(Cl)ccc23)CC1`, in series [1], the inhibition at 48 h, 100 µM is 34.6%. For the same molecule, it took 8.53 µM to reach half-maximal inhibition in series [2] (IC50). This molecule also came in with an MIC in series [3] of 16 µM (≈ 6.25 µg/mL).
Take `O=C(CN1CCN(c2ccnc3cc(Cl)ccc23)CC1)Nc1ncc([N+](=O)[O-])s1`: the inhibition at 48 h, 100 µM in series [1] turned out to be 11.3%. This molecule gave an IC50 in series [2] of 14.6 µM. The molecule further yielded an MIC in series [3] of 31.2 µM (≈ 13.5 µg/mL).
As for `CC(=O)c1ccc(NC(=S)N2CCN(c3ccnc4cc(Cl)ccc34)CC2)cc1`, the inhibition at 48 h, 100 µM in series [1] amounted to 27.2%. In series [2], this molecule showed an IC50 of 27 µM. Besides, the MIC in series [3] stood at 58.8 µM (≈ 25 µg/mL).
The like results for `O=[N+]([O-])c1ccc(N2CCN(c3ccnc4cc(Cl)ccc34)CC2)c2nonc12` were, in that order, 37.2%, 10.3 µM and 7.26 µM (≈ 2.98 µg/mL).
`O=[N+]([O-])c1ccc(NC(=S)N2CCN(c3ccnc4cc(Cl)ccc34)CC2)cc1`: the inhibition at 48 h, 100 µM in series [1] turned out to be 39.9%. The molecule also had an IC50 in series [2] of 6.8 µM. Also, the MIC in series [3] amounted to 14.3 µM (≈ 6.13 µg/mL).
Consider `O=C(CN1CCN(c2ccnc3cc(Cl)ccc23)CC1)NCc1cccs1`, for which the inhibition at 48 h, 100 µM in series [1] came to 33.4%. Further, the half-maximal inhibitory concentration (IC50) in series [2] came to 14.8 µM. This molecule registered an MIC in series [3] of 31.2 µM (≈ 12.5 µg/mL).
The like results for `O=C(CN1CCN(c2ccnc3ccccc23)CC1)NCc1ccccn1` were, in that order, 23.5%, greater than 75 µM and 138 µM (≈ 50 µg/mL).
As to `O=C(CN1CCN(c2ccnc3cc(Cl)ccc23)CC1)NCc1ccco1`, the inhibition at 48 h, 100 µM in series [1] was found to be 21.1%. The same molecule came in with a half-maximal inhibitory concentration (IC50) in series [2] of 16.2 µM. In series [3], this molecule came in with an MIC of 32.5 µM (≈ 12.5 µg/mL).
As for `O=C(Nc1ccc(Cl)cc1)N1CCN(c2ccnc3cc(Cl)ccc23)CC1`, the inhibition at 48 h, 100 µM in series [1] is 26.2%. Moreover, the half-maximal inhibitory concentration (IC50) in series [2] stood at 9.9 µM. Besides, the MIC in series [3] was 31.5 µM (≈ 12.6 µg/mL).
As to `S=C(Nc1ccc(Cl)cc1)N1CCN(c2ccnc3cc(Cl)ccc23)CC1`, the inhibition at 48 h, 100 µM in series [1] worked out at 34.2%. In series [2], this molecule displayed an IC50 of 10.7 µM. In series [3], this molecule returned an MIC of 30 µM (≈ 12.5 µg/mL).
Turning to `COc1ccc(NC(=S)N2CCN(c3ccnc4cc(Cl)ccc34)CC2)cc1`, in series [1], the inhibition at 48 h, 100 µM is 23.1%. In series [2], this molecule yielded an IC50 of 11 µM. The molecule further gave an MIC in series [3] of 30.3 µM (≈ 12.5 µg/mL).
The molecule `CO[C@H]1/C=C/O[C@@]2(C)Oc3c(C)c(O)c4c(O)c(c(/C=N/N5CCN(C)CC5)c(O)c4c3C2=O)NC(=O)/C(C)=C\C=C\[C@H](C)[C@H](O)[C@@H](C)[C@@H](O)[C@@H](C)[C@H](OC(C)=O)[C@@H]1C` [RIFAMPIN] had an MIC in series [3] of 0.23 µM (≈ 0.189 µg/mL).
The molecule `NNC(=O)c1ccncc1` [ISONIAZID] had an MIC in series [3] of 0.66 µM (≈ 0.0905 µg/mL).
